Experimental data from PubChem BioAssay AID504322 (Emory University Molecular Libraries Screening Center, 2011).
The source made the active and inactive calls. How the calls were made is not given here.

System: CHOP reporter cell assay, percent of control
Assay: CHOP reporter inhibitor potency, dose response, cell-based (AID 504322);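 further: CHO cells carrying a CHOP reporter stimulated with tunicamycin to induce ER stress; potency is for inhibition of the stress-induced reporter signal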

Row | SMILES | IC50
1 | CCc1ccc2[nH]c(=O)c(C(c3nnnn3Cc3ccco3)N3CCC(C)CC3)cc2c1 (configuration not stated) | 4.96 µM
2 | O=C(ONc1ccc(N=NC(=O)c2ccccc2O)cc1)c1ccccc1 | > 10 µM (inactive)
3 | COc1cc(/C=C(/C#N)c2nc3ccccc3[nH]2)ccc1OCC(=O)Nc1ccccc1C(C)C | 4.54 µM
4 | O=C(NCCNC(=O)c1cc(OCC(F)(F)F)ccc1OCC(F)(F)F)Nc1cccc(C(F)(F)F)c1 | 2.57 µM
5 | CC(C)c1ccccc1NC(=O)Cn1c(/C=C/c2ccccc2)nc2ccccc21 | 5.88 µM (inactive)
6 | C=C(C)COc1ccc(-c2n[nH]c(C)c2Oc2ccccc2OC)c(O)c1 | 8.82 µM (inactive)
7 | CC1(C)CC(C(CCN(Cc2ccccc2)C(=O)c2ccco2)c2ccc(F)cc2)CCO1 (configuration not stated) | 9.7 µM (inactive)
8 | O=C1N(c2ccccc2)C[C@@H]2C[C@@H](c3cccs3)N3CCC[C@@]123 | 5.69 µM (inactive)
9 | CCN1/C(=C/c2ccc3cc(C)ccc3[n+]2C)Sc2ccc3sccc3c21 | 5.29 µM (inactive)
10 | O=C(Nc1ccc(Cl)cc1)Nc1ccc(N2CCCC2)c(S(=O)(=O)Nc2ccccc2Cl)c1 | 5.95 µM (inactive)
11 | CCc1ccc(OCC(=O)NC(NC(=S)Nc2ccc(Cl)cc2)C(Cl)(Cl)Cl)cc1 (configuration not stated) | 5.13 µM (inactive)
12 | CC[C@@H]1CC=C[C@H]2[C@H]1C(=O)N(Cc1ccccc1)[C@H]2c1ccoc1 | 9.62 µM (inactive)
13 | O=c1c(Br)c(Br)cnn1-c1ccccc1 | 4.97 µM (inactive)
14 | CCOc1cc(NC(=O)CCl)c(OCC)cc1NC(=O)CCl | > 10 µM (inactive)
15 | O=C1C(=C2SCCCS2)CC/C1=C\c1ccc(F)cc1 | 4.38 µM (inactive)
16 | Oc1ccc(/C=N/Nc2nc(-c3ccc(Cl)cc3)cc(C(F)(F)F)n2)cc1 | 5.8 µM (inactive)
17 | CCOc1cc(C)c(-c2onc(C(F)(F)F)c2-c2csc(C)n2)c(O)c1 | > 10 µM (inactive)
18 | O=[N+]([O-])c1cc(S(=O)(=O)C(F)(F)F)ccc1Sc1nc2ccccc2[nH]1 | 9.3 µM (inactive)
19 | O=C(OCn1ncc(Br)c(Br)c1=O)c1ccccc1Cl | 2.84 µM
20 | O=C(OCn1ncc(Cl)c(Cl)c1=O)c1cccc(C(F)(F)F)c1 | 4.44 µM
21 | CC1=CC(=O)C=C(C)C1=NOS(=O)(=O)c1ccccc1 | 5.48 µM (inactive)
22 | Clc1nssc1=Nc1ccc(Br)cc1 | 6.25 µM (inactive)
23 | CC1CCN(S(=O)(=O)c2ccc3c(c2)C(=NO)c2cc(S(=O)(=O)N4CCC(C)CC4)ccc2-3)CC1 | 0.32 µM
24 | Nc1cccc(Nc2nc(OC(C(F)(F)F)C(F)(F)F)nc(OC(C(F)(F)F)C(F)(F)F)n2)c1 | 3.09 µM (inactive)
25 | CCN1/C(=C/C(C)=C/c2sc3ccccc3[n+]2CC)Sc2ccccc21 | < 0.16 µM

Row | SMILES | IC50
26 | NC(=O)c1ccc(C(F)(F)F)n(Cc2ccc(Cl)cc2)c1=O | 9.05 µM (inactive)
27 | O=C(OCn1ncc(Br)c(Br)c1=O)c1c(F)cccc1F | 0.76 µM
28 | Cc1cc(C)c(S(=O)(=O)NCCn2c(C)cc3ccccc32)c(C)c1 | 9.61 µM (inactive)
29 | Cc1ccc(C(=O)N/C(=C\c2ccc(Br)cc2)c2nc(=S)[nH][nH]2)cc1 | 9.7 µM (inactive)
30 | O=S1(=O)C=C(Sc2nnc(-c3ccccc3)o2)c2ccccc21 | 4.34 µM
31 | O=C1C(C2=NC(c3ccccn3)C3C(=O)N(c4ccc(Cl)cc4Cl)C(=O)C23)=C(O)c2ccccc21 (configuration not stated) | 7.17 µM (inactive)
32 | C=CCn1c(SCC(=O)Nc2ccc(-c3nc4ccc(C)cc4s3)cc2)nnc1-c1ccccc1 | 9.89 µM (inactive)
33 | Cc1cc(/C=N/n2cnnc2)c(C)n1-c1ccc(OCc2ccc(Cl)cc2Cl)cc1 | < 0.16 µM (inactive)
34 | CCOc1ccc(-n2c(SCC(=O)Nc3ccc(Br)cc3)nc3n[nH]c(C)c3c2=N)cc1 | 8.02 µM (inactive)
35 | COC(=O)C(O)(c1ccc(NC(=S)NC(=O)c2ccc(Cl)cc2Cl)c(C)c1)C(F)(F)F (configuration not stated) | 9.05 µM (inactive)
36 | COc1cc(/C=C(\C#N)c2nc3ccccc3[nH]2)cc(Br)c1OCc1ccc(F)cc1 | 6.3 µM (inactive)
37 | Cc1ccc(C2CN(C)C3(C(=O)Nc4ccccc43)C23COc2ccccc2C3=O)cc1 (configuration not stated) | > 10 µM (inactive)
38 | Cc1ccc(NC(=O)c2cc3ccccc3oc2=O)cc1S(=O)(=O)N(C)C | < 0.16 µM
39 | NC(=S)n1[nH]c(-c2ccc([N+](=O)[O-])cc2)c(N=Nc2cccc([N+](=O)[O-])c2)c1=O | 4.4 µM (inactive)
40 | Cc1ccc(/C=C2\SC(=S)N(CCCC(=O)Nc3ccccn3)C2=O)cc1 | 0.42 µM
41 | CC(C)=CCCC1(C)C=Cc2c(c(C)cc3c2[nH]c2cc(O)ccc23)O1 (configuration not stated) | 6.04 µM (inactive)
42 | Cc1cc(C2(c3ccc(O)c(C)c3)C(=O)Nc3ccccc32)ccc1O | > 10 µM (inactive)
43 | COc1cc(/C=N/O)cc(Br)c1OCc1cccc(Cl)c1 | 6.16 µM (inactive)
44 | COc1ccc(C(=O)/C=C/C(=O)N(CC(=O)NC2CCCCC2)Cc2ccc(F)cc2)c(O)c1 | 2.12 µM
45 | CC(=O)OCCCNc1cc(Sc2ccc(Cl)cc2)c2nonc2c1[N+](=O)[O-] | > 10 µM (inactive)
46 | O=S1(=O)C=C(Sc2nc3ccccc3s2)c2ccccc21 | 1.26 µM
47 | CCCCS(=O)(=O)/C=C\C=C/S(=O)(=O)CCCC | 2.12 µM
48 | CCOC(=O)Cc1csc(NC(=O)NC2(C(F)(F)F)Oc3cc(Cl)c(Cl)cc3O2)n1 | 4.04 µM
49 | CN(C(=O)CCl)C1CCCc2ccccc21 (configuration not stated) | > 10 µM (inactive)
50 | CC(C)=CCc1c(O)cc2oc3c(CC=C(C)C)c(O)c(O)c(CC=C(C)C)c3c(=O)c2c1O | 9.67 µM (inactive)

Row | SMILES | IC50
51 | O=C1C(Nc2ccccc2)=C/C(=N/S(=O)(=O)c2cccs2)c2ccccc21 | 2.6 µM
52 | CSC(SC)=C(C#N)C(=O)c1ccccc1 | > 10 µM (inactive)
53 | COc1ccc2nc(Nc3nc(CSc4nc5ccccc5[nH]4)cc(=O)[nH]3)nc(C)c2c1 | 2.33 µM (inactive)
54 | O=[N+]([O-])c1c(NCCCO)cc(Sc2ccc(Cl)cc2)c2nonc12 | 4.7 µM
55 | Nc1ccc2oc(-c3cc(Br)ccc3Cl)nc2c1 | 0.71 µM
56 | COC(=O)CS(=O)(=O)c1nnc([C@H](Cc2ccccc2)NC(=O)OC(C)(C)C)o1 | 4.68 µM
57 | COc1ccccc1C(=O)Oc1ccc(C(C)C)cc1 | > 10 µM (inactive)
58 | COc1ccc(Cn2c(SCc3cc(C)ccc3C)nc3cc(OC)c(OC)cc3c2=N)cc1 | 3.55 µM (inactive)
59 | COc1ccc(C(=O)NNC(=O)c2ccccn2)cc1 | 3.12 µM (inactive)
60 | CCc1cc(-c2n[nH]c(C)c2Oc2ccc(C(C)C)cc2)c(O)cc1O | 7.24 µM (inactive)
61 | Cc1ccc(/C=N/NC(=O)CSCc2ccc(Cl)cc2)cc1 | 9.83 µM (inactive)
62 | C/C=C(\C)C(=O)OC1C(C)=C2C(C1OC(=O)CCCCC)C(C)(OC(C)=O)CC(OC(=O)CCC)C1(O)C2OC(=O)C1(C)O (configuration not stated) | < 0.16 µM
63 | CCc1ccc(C(=O)/C=C/c2ccc([N+](=O)[O-])o2)cc1 | 9.75 µM (inactive)
64 | Cc1ccc(CNCc2cc3c(C(C)(C)C)nn(-c4ccccc4)c3[nH]c2=O)cc1 | 7.24 µM (inactive)
65 | C=CCN1C(=O)/C(=C/c2ccc(OC(C)=O)c(OCC)c2[N+](=O)[O-])SC1=S | 5.3 µM (inactive)
66 | CCC(C)(C)c1ccc(Oc2ccc(N)cc2)cc1 | < 0.16 µM
67 | Cc1ccccc1Oc1cc(-n2ncc(Cl)c(Cl)c2=O)ncn1 | 2.08 µM
68 | COC(=O)c1ccc2c(=O)n(CCCCCC(=O)N3CCN(c4ccccc4)CC3)c(=O)[nH]c2c1 | 9.65 µM (inactive)
69 | C=C(C)C(=O)OC1(C(F)(F)F)Oc2cc(C)ccc2NC1=O (configuration not stated) | 5.82 µM (inactive)
70 | CC(C)Oc1cc(NC(=O)CS(=O)CC(=O)Nc2cccc(C(F)(F)F)c2)c(Cl)cc1Cl (configuration not stated) | 7.99 µM (inactive)
71 | COc1ccc(CCNC(=O)c2nnn(-c3ccc4c(c3)OCCO4)c2N)cc1OC | 0.69 µM
72 | Cn1c(=O)c([N+](=O)[O-])c(Cl)c2ccccc21 | 3.34 µM
73 | COC(=O)c1c(NC(=O)Nc2ccc(Cl)cc2)sc(C)c1C | 9.33 µM (inactive)
74 | Cc1ccc(NC(=O)CCl)cc1S(=O)(=O)N1CCCCCC1 | > 10 µM (inactive)
75 | Cc1cc2c(cc1C)CSC(c1c(O)ccc3ccccc13)SC2 | > 10 µM (inactive)

Row | SMILES | IC50
76 | O=C(CCl)N(Cc1cccc([N+](=O)[O-])c1)c1cccc(Cl)c1 | 9.39 µM (inactive)
77 | Clc1ccc2c(N/N=C/c3ccc(Br)cc3)ccnc2c1 | 9.92 µM (inactive)
78 | COc1ccc([C@H]2Oc3cc(O)cc(O)c3C(=O)C2[C@@H]2C(=O)c3c(O)cc(O)cc3O[C@@H]2c2ccc(OC)cc2)cc1 (some centres not stated) | > 10 µM (inactive)
79 | CCOc1cc(/C=C\[N+](=O)[O-])ccc1OCC(=O)Nc1ccccc1C | 4.96 µM (inactive)
80 | O=C1C(C2=NC(c3ccccn3)C3C(=O)N(c4ccc(OC(F)(F)F)cc4)C(=O)C23)=C(O)c2ccccc21 (configuration not stated) | 4.57 µM
81 | COc1oc(-c2ccc(Cl)cc2)nc1C(F)(F)F | 1.29 µM
82 | O=C(Nc1cc(Cl)ccc1O)c1cc2n(n1)C(C(F)(F)F)CC(c1ccc3c(c1)OCO3)N2 (configuration not stated) | 1.97 µM
83 | O=C(O)c1cccc(COc2ccccc2Cl)c1 | 6.05 µM (inactive)
84 | Cc1ccc2sc(N(CCCN(C)C)C(=O)c3nc4ccccc4s3)nc2c1C | 9.48 µM (inactive)
85 | COCCn1cnc2c(c1=O)c1nc3ccccc3nc1n2/N=C/c1cccc(OC)c1 | 8.74 µM (inactive)
86 | Cc1cccc(/C=C/c2nc3ccccc3c(=O)[nH]2)c1 | > 10 µM (inactive)
87 | CN(C)c1ccc(C(CNS(=O)(=O)c2ccc(F)c(F)c2)c2c[nH]c3ccccc23)cc1 (configuration not stated) | 6.39 µM (inactive)
88 | CC1CCN(c2nc3ccc(C(=O)O)cc3s2)CC1 | 0.71 µM
89 | N=C(N)c1c(O)n(C2CCCCC2)c(=O)n(C2CCCCC2)c1=O | 2.77 µM
90 | CC(CNC(=S)Nc1cc(F)cc(F)c1)CSc1ccc(Cl)cc1 (configuration not stated) | > 10 µM (inactive)
91 | CCc1ccc(OCc2n[nH]c(=S)n2C(C)CCCC(C)C)cc1 (configuration not stated) | 2.44 µM
92 | O=C(Nc1ccc([N+](=O)[O-])cc1)Nc1ccc(OC(F)F)c(Cl)c1 | 6.4 µM (inactive)
93 | Cc1cc(O)c(NC(=S)NC(=O)c2ccc(-c3ccc(Cl)cc3)o2)cc1C | < 0.16 µM
94 | COc1ccc(N2C(=O)CC(Sc3nnnn3-c3ccc(F)cc3)C2=O)cc1 (configuration not stated) | 0.24 µM
95 | CCC(NC(=O)Nc1nnc(C(F)(F)F)s1)(C(F)(F)F)C(F)(F)F | 2.56 µM (inactive)
96 | O=C(COC(=O)Cc1c(Cl)cccc1Cl)Nc1ccc(OC(F)(F)F)cc1 | > 10 µM (inactive)
97 | Cc1ccc(C(C)C)c(OCC(=O)N/N=C/C2CCCCC2)c1 | 9.65 µM (inactive)
